Experimental data published in publication PMC5218480 (PLoS ONE, 2017).

System: MV-4-11 cells
Experiment: Gene expression microarray analysis (Affymetrix PrimeView) and GSEA
Format: cell-based, human
Parameters: RFU PODN (11730768_x_at) / Fold change /veh PODN (11730768_x_at) / RFU LINC00158 (11744669_a_at) / Fold change /veh LINC00158 (11744669_a_at) / RFU DUSP10 (11751237_a_at) / Fold change /veh DUSP10 (11751237_a_at) / RFU ID3 (11757404_x_at) / Fold change /veh ID3 (11757404_x_at) / RFU PLEKHG5 (11737974_s_at) / Fold change /veh PLEKHG5 (11737974_s_at) / RFU LRRC4B (11730491_at) / Fold change /veh LRRC4B (11730491_at) / RFU GIMAP4 (11747438_a_at) / Fold change /veh GIMAP4 (11747438_a_at) / RFU KRT8 (11758183_x_at) / Fold change /veh KRT8 (11758183_x_at) / RFU CNN1 (11734310_a_at) / Fold change /veh CNN1 (11734310_a_at) / RFU VPS37D (11726825_at) / Fold change /veh VPS37D (11726825_at) / RFU C10orf10 (11716522_x_at) / Fold change /veh C10orf10 (11716522_x_at) / RFU KIR2DL2 /// KIR2DL4 /// KIR2DL5A /// KIR2DL5B /// KIR2DS1 /// KIR2DS2 /// KIR2DS3 /// KIR2DS4 /// KIR3DL3 /// KIR3DL3 /// KIR3DS1 (11738374_at) / Fold change /veh KIR2DL2 /// KIR2DL4 /// KIR2DL5A /// KIR2DL5B /// KIR2DS1 /// KIR2DS2 /// KIR2DS3 /// KIR2DS4 /// KIR3DL3 /// KIR3DL3 /// KIR3DS1 (11738374_at) / RFU C1QL1 (11718748_at) / Fold change /veh C1QL1 (11718748_at) / RFU TMPRSS4 (11747572_a_at) / Fold change /veh TMPRSS4 (11747572_a_at) / RFU HAMP (11756126_x_at) / Fold change /veh HAMP (11756126_x_at) / RFU RNFT2 (11725882_a_at) / Fold change /veh RNFT2 (11725882_a_at) / RFU NR4A2 (11747474_a_at) / Fold change /veh NR4A2 (11747474_a_at) / RFU ABCC12 (11746883_a_at) / Fold change /veh ABCC12 (11746883_a_at) / RFU TMEM136 (11760407_x_at) / Fold change /veh TMEM136 (11760407_x_at) / RFU CLDN22 /// WWC2 (11732394_at) / Fold change /veh CLDN22 /// WWC2 (11732394_at) / RFU HLA-DPB1 (11760878_x_at) / Fold change /veh HLA-DPB1 (11760878_x_at) / RFU SPINT1 (11716480_a_at) / Fold change /veh SPINT1 (11716480_a_at) / RFU GAP43 (11754022_s_at) / Fold change /veh GAP43 (11754022_s_at) / RFU A4GNT (11735810_at) / Fold change /veh A4GNT (11735810_at) / RFU PRB3 (11715151_x_at) / Fold change /veh PRB3 (11715151_x_at) / RFU TUBB4B (11761932_at) / Fold change /veh TUBB4B (11761932_at) / RFU CAPN14 (11732068_a_at) / Fold change /veh CAPN14 (11732068_a_at) / RFU TMCC2 (11721928_a_at) / Fold change /veh TMCC2 (11721928_a_at) / RFU IRGQ (11745062_a_at) / Fold change /veh IRGQ (11745062_a_at) / RFU FAM174B (11720279_a_at) / Fold change /veh FAM174B (11720279_a_at) / RFU TMPRSS4 (11748680_a_at) / Fold change /veh TMPRSS4 (11748680_a_at) / RFU FAM212B (11763350_a_at) / Fold change /veh FAM212B (11763350_a_at) / RFU PLEKHG5 (11743358_a_at) / Fold change /veh PLEKHG5 (11743358_a_at) / RFU ZSCAN30 (11745921_a_at) / Fold change /veh ZSCAN30 (11745921_a_at) / RFU CMKLR1 (11741424_a_at) / Fold change /veh CMKLR1 (11741424_a_at) / RFU LOC101060620 /// MAPK8IP1 (11723275_at) / Fold change /veh LOC101060620 /// MAPK8IP1 (11723275_at) / RFU SPTSSB (11747773_x_at) / Fold change /veh SPTSSB (11747773_x_at) / RFU PRSS12 (11739890_at) / Fold change /veh PRSS12 (11739890_at) / RFU BIN1 (11741810_x_at) / Fold change /veh BIN1 (11741810_x_at) / RFU WNT11 (11732464_a_at) / Fold change /veh WNT11 (11732464_a_at) / RFU C10orf10 (11716521_a_at) / Fold change /veh C10orf10 (11716521_a_at) / RFU C5orf56 (11738089_at) / Fold change /veh C5orf56 (11738089_at) / RFU CYB561 (11721691_x_at) / Fold change /veh CYB561 (11721691_x_at) / RFU ANKRD19P (11752326_a_at) / Fold change /veh ANKRD19P (11752326_a_at) / RFU OR2T12 /// OR2T33 /// OR2T8 (11738714_s_at) / Fold change /veh OR2T12 /// OR2T33 /// OR2T8 (11738714_s_at) / RFU VCAN (11748164_a_at) / Fold change /veh VCAN (11748164_a_at) / RFU JSRP1 (11732532_at) / Fold change /veh JSRP1 (11732532_at) / RFU KRTAP10-11 (11738290_x_at) / Fold change /veh KRTAP10-11 (11738290_x_at) / RFU MYO3A (11730013_a_at) / Fold change /veh MYO3A (11730013_a_at) / RFU EBF3 (11725865_a_at) / Fold change /veh EBF3 (11725865_a_at) / RFU CAMK2N1 (11719241_x_at) / Fold change /veh CAMK2N1 (11719241_x_at) / RFU C5orf56 (11738088_a_at) / Fold change /veh C5orf56 (11738088_a_at) / RFU OLFML3 (11715873_a_at) / Fold change /veh OLFML3 (11715873_a_at) / RFU LOC100653217 /// NTM (11731650_a_at) / Fold change /veh LOC100653217 /// NTM (11731650_a_at) / RFU MAPK11 (11762145_a_at) / Fold change /veh MAPK11 (11762145_a_at) / RFU FIZ1 (11724087_x_at) / Fold change /veh FIZ1 (11724087_x_at) / RFU OASL (11726364_x_at) / Fold change /veh OASL (11726364_x_at) / RFU SOX15 (11748057_x_at) / Fold change /veh SOX15 (11748057_x_at) / RFU CD79A (11719716_a_at) / Fold change /veh CD79A (11719716_a_at) / RFU HIST1H1D (11736915_at) / Fold change /veh HIST1H1D (11736915_at) / RFU CASKIN2 (11723855_a_at) / Fold change /veh CASKIN2 (11723855_a_at) / RFU LOC730098 (11760151_x_at) / Fold change /veh LOC730098 (11760151_x_at) / RFU OR4N2 (11742367_at) / Fold change /veh OR4N2 (11742367_at) / RFU PRRT2 (11749266_a_at) / Fold change /veh PRRT2 (11749266_a_at) / RFU SNX32 (11753110_a_at) / Fold change /veh SNX32 (11753110_a_at) / RFU CDHR5 (11726645_a_at) / Fold change /veh CDHR5 (11726645_a_at) / RFU RCAN1 (11760418_a_at) / Fold change /veh RCAN1 (11760418_a_at) / RFU FAM167A (11723789_a_at) / Fold change /veh FAM167A (11723789_a_at) / RFU FAM26E (11764081_at) / Fold change /veh FAM26E (11764081_at) / RFU ISYNA1 (11749810_s_at) / Fold change /veh ISYNA1 (11749810_s_at) / RFU ACY1 (11761880_at) / Fold change /veh ACY1 (11761880_at) / RFU 11764098_at / Fold change /veh 11764098_at / RFU SAMD14 (11745864_x_at) / Fold change /veh SAMD14 (11745864_x_at) / RFU NPB (11741838_a_at) / Fold change /veh NPB (11741838_a_at) / RFU TMPRSS6 (11731388_a_at) / Fold change /veh TMPRSS6 (11731388_a_at) / RFU KRTAP10-2 (11738614_at) / Fold change /veh KRTAP10-2 (11738614_at) / RFU ARHGAP8 /// PRR5-ARHGAP8 (11727945_x_at) / Fold change /veh ARHGAP8 /// PRR5-ARHGAP8 (11727945_x_at) / RFU KRTAP5-7 /// NADSYN1 (11734609_at) / Fold change /veh KRTAP5-7 /// NADSYN1 (11734609_at) / RFU RASL12 (11751679_a_at) / Fold change /veh RASL12 (11751679_a_at) / RFU CDKN2B (11736163_a_at) / Fold change /veh CDKN2B (11736163_a_at) / RFU PRF1 (11729649_at) / Fold change /veh PRF1 (11729649_at) / RFU, ZNF638 /// ZNF638-IT1 / Fold change vs veh, ZNF638 /// ZNF638-IT1 / RFU, PANK3 / Fold change vs veh, PANK3 / RFU, SH3YL1 / Fold change vs veh, SH3YL1 / RFU, ZEB2 / Fold change vs veh, ZEB2 / RFU, NRIP1 / Fold change vs veh, NRIP1 / RFU, PTTG1IP / Fold change vs veh, PTTG1IP / RFU, CAPN2 / Fold change vs veh, CAPN2 / RFU, MED14 / Fold change vs veh, MED14 / RFU, SNORA58 / Fold change vs veh, SNORA58 / RFU, C1orf63 / Fold change vs veh, C1orf63 / RFU, LRRFIP1 / Fold change vs veh, LRRFIP1 / RFU, NDUFAF7 / Fold change vs veh, NDUFAF7 / RFU, SLC12A2 / Fold change vs veh, SLC12A2 / RFU, IBTK / Fold change vs veh, IBTK / RFU, ESF1 / Fold change vs veh, ESF1 / Fold change vs veh, TMEM50B / RFU, TAOK1 / Fold change vs veh, TAOK1 / RFU, ACBD3 / Fold change vs veh, ACBD3 / RFU, TMA16 / Fold change vs veh, TMA16 / RFU, RWDD3 / Fold change vs veh, RWDD3 / RFU, BCAT1 / Fold change vs veh, BCAT1 / RFU, EDEM3 / Fold change vs veh, EDEM3 / RFU, TMEM33 / Fold change vs veh, TMEM33 / RFU, WDR75 / Fold change vs veh, WDR75 / RFU, AHCTF1 / Fold change vs veh, AHCTF1 / RFU, TFRC / Fold change vs veh, TFRC / RFU, ZDHHC17 / Fold change vs veh, ZDHHC17 / RFU, NOM1 / Fold change vs veh, NOM1 / RFU, ARL8B / Fold change vs veh, ARL8B / RFU, ZBTB11 / Fold change vs veh, ZBTB11 / RFU, TAMM41 / Fold change vs veh, TAMM41 / RFU, KIAA1704 /// LOC100996395 / Fold change vs veh, KIAA1704 /// LOC100996395 / RFU, ING1 / Fold change vs veh, ING1 / RFU, TRMT61B / Fold change vs veh, TRMT61B / RFU, FUBP3 / Fold change vs veh, FUBP3 / RFU, TP53 / Fold change vs veh, TP53 / RFU, TNKS2 / Fold change vs veh, TNKS2 / RFU, ZFP14 / Fold change vs veh, ZFP14 / RFU, ACTR2 / Fold change vs veh, ACTR2 / RFU, PPP3R1 / Fold change vs veh, PPP3R1 / RFU, PIK3R1 / Fold change vs veh, PIK3R1 / RFU, HNRNPA1 / Fold change vs veh, HNRNPA1 / RFU, RNF170 / Fold change vs veh, RNF170 / RFU, ZNF28 / Fold change vs veh, ZNF28 / RFU, RNGTT / Fold change vs veh, RNGTT / RFU, OGT / Fold change vs veh, OGT / RFU, BRD1 / Fold change vs veh, BRD1 / RFU, MARS / Fold change vs veh, MARS / RFU, ZNF655 / Fold change vs veh, ZNF655 / RFU, FAHD1 / Fold change vs veh, FAHD1 / RFU, BDP1 / Fold change vs veh, BDP1 / RFU, LRRCC1 / Fold change vs veh, LRRCC1 / RFU, ARID1A / Fold change vs veh, ARID1A / RFU, ZNF146 / Fold change vs veh, ZNF146 / RFU, ZNF330 / Fold change vs veh, ZNF330 / RFU, GPN3 / Fold change vs veh, GPN3 / RFU, C9orf123 / Fold change vs veh, C9orf123 / RFU, N4BP2L2 / Fold change vs veh, N4BP2L2 / RFU, ARFIP1 / Fold change vs veh, ARFIP1 / RFU, FAM179B / Fold change vs veh, FAM179B / RFU, BCL10 / Fold change vs veh, BCL10 / RFU, UHRF1BP1L / Fold change vs veh, UHRF1BP1L / RFU, BET1 / Fold change vs veh, BET1 / RFU, CNOT2 / Fold change vs veh, CNOT2 / RFU, ZNF268 / Fold change vs veh, ZNF268 / Fold change vs veh, ZNF507 / RFU, DGCR2 / Fold change vs veh, DGCR2 / RFU, WDSUB1 / Fold change vs veh, WDSUB1 / Fold change vs veh, HSP90B1 /// MIR3652 / RFU, ADSS / Fold change vs veh, ADSS / RFU, GK / Fold change vs veh, GK / RFU, ZNF148 / Fold change vs veh, ZNF148 / RFU, TAF9 / Fold change vs veh, TAF9 / RFU, SLC1A5 / Fold change vs veh, SLC1A5 / RFU, SLMO2 / Fold change vs veh, SLMO2 / RFU, ABCC4 / Fold change vs veh, ABCC4 / RFU, LOC101060439 /// RAP1B / Fold change vs veh, LOC101060439 /// RAP1B / RFU, RFX7 / Fold change vs veh, RFX7 / RFU, GTPBP10 / Fold change vs veh, GTPBP10 / RFU, CNEP1R1 / Fold change vs veh, CNEP1R1 / RFU, BIVM-ERCC5 /// ERCC5 / Fold change vs veh, BIVM-ERCC5 /// ERCC5 / RFU, ILF3 / Fold change vs veh, ILF3 / RFU 11762660_at / Fold change /veh 11762660_at / RFU VCAN (11757783_s_at) / Fold change /veh VCAN (11757783_s_at) / RFU DDX43 (11728927_at) / Fold change /veh DDX43 (11728927_at) / RFU KRT8 (11758188_x_at) / Fold change /veh KRT8 (11758188_x_at) / RFU NKD1 (11759106_at) / Fold change /veh NKD1 (11759106_at) / RFU SRD5A1 (11742802_a_at) / Fold change /veh SRD5A1 (11742802_a_at) / RFU TPSAB1 /// TPSB2 (11721975_s_at) / Fold change /veh TPSAB1 /// TPSB2 (11721975_s_at) / RFU GSTM3 (11746129_a_at) / Fold change /veh GSTM3 (11746129_a_at) / RFU IL23R (11737362_x_at) / Fold change /veh IL23R (11737362_x_at) / RFU TMEM51 (11727254_a_at) / Fold change /veh TMEM51 (11727254_a_at) / RFU PIWIL2 (11732686_x_at) / Fold change /veh PIWIL2 (11732686_x_at) / RFU ORM1 (11744905_x_at) / Fold change /veh ORM1 (11744905_x_at) / RFU CCDC152 (11743942_at) / Fold change /veh CCDC152 (11743942_at) / RFU ECM1 (11717891_a_at) / Fold change /veh ECM1 (11717891_a_at) / RFU IL23R (11748794_a_at) / Fold change /veh IL23R (11748794_a_at) / RFU TNFAIP8L3 (11732012_x_at) / Fold change /veh TNFAIP8L3 (11732012_x_at) / RFU MBOAT4 (11741988_at) / Fold change /veh MBOAT4 (11741988_at) / RFU 11764193_at / Fold change /veh 11764193_at / RFU TMEM53 (11763286_at) / Fold change /veh TMEM53 (11763286_at) / RFU MAGEB2 (11727129_at) / Fold change /veh MAGEB2 (11727129_at) / RFU TMEM200A (11744735_a_at) / Fold change /veh TMEM200A (11744735_a_at) / RFU CCDC152 (11751479_a_at) / Fold change /veh CCDC152 (11751479_a_at) / RFU FAM211A (11726209_a_at) / Fold change /veh FAM211A (11726209_a_at) / RFU RGS16 (11746705_a_at) / Fold change /veh RGS16 (11746705_a_at) / RFU VCAN (11755009_s_at) / Fold change /veh VCAN (11755009_s_at) / RFU RHOB (11743442_s_at) / Fold change /veh RHOB (11743442_s_at) / RFU RGS16 (11720943_a_at) / Fold change /veh RGS16 (11720943_a_at) / RFU RGS16 (11720944_at) / Fold change /veh RGS16 (11720944_at) / RFU, VPS4B / Fold change vs veh, VPS4B / RFU, CREB1 / Fold change vs veh, CREB1 / RFU, DNAJC13 / Fold change vs veh, DNAJC13 / RFU, GNAQ / Fold change vs veh, GNAQ / RFU, CDK5R1 / Fold change vs veh, CDK5R1 / RFU, ZRANB3 / Fold change vs veh, ZRANB3 / RFU, CUL4A / Fold change vs veh, CUL4A / RFU, CCNY / Fold change vs veh, CCNY / RFU, UFL1 / Fold change vs veh, UFL1 / RFU, COG3 / Fold change vs veh, COG3 / RFU, DIAPH2 / Fold change vs veh, DIAPH2 / RFU, SKA2 / Fold change vs veh, SKA2 / RFU, AFF3 / Fold change vs veh, AFF3 / RFU, LMF1 / Fold change vs veh, LMF1 / RFU, IPO11 / Fold change vs veh, IPO11 / RFU, DFFB / Fold change vs veh, DFFB / RFU, FOXP1 / Fold change vs veh, FOXP1 / RFU, CARD8 / Fold change vs veh, CARD8 / RFU, STRN3 / Fold change vs veh, STRN3 / RFU, ADK / Fold change vs veh, ADK / RFU, RASSF2 / Fold change vs veh, RASSF2 / RFU, WIPF1 / Fold change vs veh, WIPF1 / RFU, LARP1B / Fold change vs veh, LARP1B / RFU, RASA1 / Fold change vs veh, RASA1 / RFU, RB1 / Fold change vs veh, RB1 / RFU, PPFIA1 / Fold change vs veh, PPFIA1 / RFU, MAT2A / Fold change vs veh, MAT2A / RFU, CCT5 / Fold change vs veh, CCT5 / RFU, WDR92 / Fold change vs veh, WDR92 / RFU, CUX1 / Fold change vs veh, CUX1 / RFU, TTC7A / Fold change vs veh, TTC7A / RFU, TMEM135 / Fold change vs veh, TMEM135 / RFU, DEPTOR / Fold change vs veh, DEPTOR / RFU, CPM / Fold change vs veh, CPM / RFU, DNAJB6 / Fold change vs veh, DNAJB6 / RFU, CACNA2D3 / Fold change vs veh, CACNA2D3 / RFU, DTX4 / Fold change vs veh, DTX4 / RFU, TFCP2 / Fold change vs veh, TFCP2 / RFU, GMCL1 /// GMCL1P1 / Fold change vs veh, GMCL1 /// GMCL1P1 / RFU, AEBP2 / Fold change vs veh, AEBP2 / RFU, SNHG1 /// SNORD22 /// SNORD25 /// SNORD26 /// SNORD27 /// SNORD28 /// SNORD29 /// SNORD31 / Fold change vs veh, SNHG1 /// SNORD22 /// SNORD25 /// SNORD26 /// SNORD27 /// SNORD28 /// SNORD29 /// SNORD31 / Fold change (Aza/veh), C12orf56 (ProbeSet 11735607_a_at) / Fold change (ACY-1035/veh), C12orf56 (ProbeSet 11735607_a_at) / Fold change (Aza/veh), FGFR1OP (ProbeSet 11751329_s_at) / Fold change (ACY-1035/veh), FGFR1OP (ProbeSet 11751329_s_at) / Fold change (Aza/veh), VPS36 (ProbeSet 11739960_a_at) / Fold change (ACY-1035/veh), VPS36 (ProbeSet 11739960_a_at) / RFU SYPL1 (11715823_x_at) / Fold change /veh SYPL1 (11715823_x_at) / RFU IGFBP7 (11715501_s_at) / Fold change /veh IGFBP7 (11715501_s_at) / RFU REEP3 (11722064_at) / Fold change /veh REEP3 (11722064_at) / RFU IGLL1 (11728026_x_at) / Fold change /veh IGLL1 (11728026_x_at): dose or concentration left out as unconfirmed
Conditions: ProbeSet 11724763_s_at; LIST D

For `Nc1ncn([C@@H]2O[C@H](CO)[C@@H](O)[C@H]2O)c(=O)n1` [azacitidine], the “RFU, DEPTOR” value was 80.20 RFU.
